Measurements: the CheMixHub viscosity set
Several values for one entry are separate records, joined by “and”; a condition that tells them apart may be missing. Equal values may be shown once.

Assay: xn = mol fraction of the nth substance listed

O=C1CCCN1 + O
Details	viscosity [mPa·s]
298.15 K, 100 kPa, x1 = 0.0115	1.015
298.15 K, 100 kPa, x1 = 0.0189	1.099
298.15 K, 100 kPa, x1 = 0.0287	1.211
298.15 K, 100 kPa, x1 = 0.0388	1.328
298.15 K, 100 kPa, x1 = 0.0505	1.472
298.15 K, 100 kPa, x1 = 0.0598	1.591
298.15 K, 100 kPa, x1 = 0.0698	1.725
298.15 K, 100 kPa, x1 = 0.0803	1.875
298.15 K, 100 kPa, x1 = 0.0898	2.013
298.15 K, 100 kPa, x1 = 0.1007	2.241
298.15 K, 100 kPa, x1 = 0.1507	3.167
298.15 K, 100 kPa, x1 = 0.2024	4.25
298.15 K, 100 kPa, x1 = 0.2554	5.425
298.15 K, 100 kPa, x1 = 0.3052	6.531
298.15 K, 100 kPa, x1 = 0.3568	7.599
298.15 K, 100 kPa, x1 = 0.4091	8.579
298.15 K, 100 kPa, x1 = 0.4579	9.388
298.15 K, 100 kPa, x1 = 0.5569	10.69
298.15 K, 100 kPa, x1 = 0.6612	11.65
298.15 K, 100 kPa, x1 = 0.7216	12.08
298.15 K, 100 kPa, x1 = 0.8231	12.63
298.15 K, 100 kPa, x1 = 0.8637	12.82
298.15 K, 100 kPa, x1 = 0.9213	13.08
298.15 K, 100 kPa, x1 = 0.9301	13.11
298.15 K, 100 kPa, x1 = 0.9395	13.16
298.15 K, 100 kPa, x1 = 0.9491	13.18
298.15 K, 100 kPa, x1 = 0.9588	13.21
298.15 K, 100 kPa, x1 = 0.969	13.22
298.15 K, 100 kPa, x2 = 0.0105	13.3
304.15 K, 101.33 kPa, x2 = 0.1162	10.05
304.15 K, 101.33 kPa, x2 = 0.1885	9.771
304.15 K, 101.33 kPa, x2 = 0.2962	9.28
304.15 K, 101.33 kPa, x2 = 0.407	8.553
304.15 K, 101.33 kPa, x2 = 0.5061	7.697
304.15 K, 101.33 kPa, x2 = 0.5975	6.611
304.15 K, 101.33 kPa, x2 = 0.6831	5.353
304.15 K, 101.33 kPa, x2 = 0.8066	3.322
304.15 K, 101.33 kPa, x2 = 0.9019	1.885
308.15 K, 101 kPa, x1 = 0.0921	1.572
308.15 K, 101 kPa, x1 = 0.1915	2.467
308.15 K, 101 kPa, x1 = 0.315	3.573
308.15 K, 101 kPa, x1 = 0.4027	4.339
308.15 K, 101 kPa, x1 = 0.519	5.43
308.15 K, 101 kPa, x1 = 0.5927	6.176
308.15 K, 101 kPa, x1 = 0.6947	6.828
308.15 K, 101 kPa, x1 = 0.7877	7.493
308.15 K, 101 kPa, x1 = 0.9207	8.425
308.15 K, 101.33 kPa, x2 = 0.1162	8.702
308.15 K, 101.33 kPa, x2 = 0.1885	8.419
308.15 K, 101.33 kPa, x2 = 0.2962	7.958
308.15 K, 101.33 kPa, x2 = 0.407	7.333
308.15 K, 101.33 kPa, x2 = 0.5061	6.591
308.15 K, 101.33 kPa, x2 = 0.5975	5.665
308.15 K, 101.33 kPa, x2 = 0.6831	4.612
308.15 K, 101.33 kPa, x2 = 0.8066	2.917
308.15 K, 101.33 kPa, x2 = 0.9019	1.69
313.15 K, 101 kPa, x1 = 0.0803	1.274
313.15 K, 101 kPa, x1 = 0.1598	2.074
313.15 K, 101 kPa, x1 = 0.2476	3.053
313.15 K, 101 kPa, x1 = 0.3087	3.73
313.15 K, 101 kPa, x1 = 0.4	4.641
313.15 K, 101 kPa, x1 = 0.4668	5.207
313.15 K, 101 kPa, x1 = 0.5478	5.763
313.15 K, 101 kPa, x1 = 0.6434	6.298
313.15 K, 101 kPa, x1 = 0.7195	6.627
313.15 K, 101 kPa, x1 = 0.7991	6.924
313.15 K, 101 kPa, x1 = 0.8781	7.184
313.15 K, 101 kPa, x1 = 0.9585	7.432
313.15 K, 101.33 kPa, x2 = 0.1162	7.3
313.15 K, 101.33 kPa, x2 = 0.1885	7.066
313.15 K, 101.33 kPa, x2 = 0.2962	6.647
313.15 K, 101.33 kPa, x2 = 0.407	6.111
313.15 K, 101.33 kPa, x2 = 0.5061	5.506
313.15 K, 101.33 kPa, x2 = 0.5975	4.74
313.15 K, 101.33 kPa, x2 = 0.6831	3.873
313.15 K, 101.33 kPa, x2 = 0.8066	2.495
313.15 K, 101.33 kPa, x2 = 0.9019	1.483
318.15 K, 101.33 kPa, x2 = 0.1162	6.211
318.15 K, 101.33 kPa, x2 = 0.1885	5.985
318.15 K, 101.33 kPa, x2 = 0.2962	5.641
318.15 K, 101.33 kPa, x2 = 0.407	5.164
318.15 K, 101.33 kPa, x2 = 0.5061	4.656
318.15 K, 101.33 kPa, x2 = 0.5975	4.004
318.15 K, 101.33 kPa, x2 = 0.6831	3.308
318.15 K, 101.33 kPa, x2 = 0.8066	2.165
318.15 K, 101.33 kPa, x2 = 0.9019	1.313
323.15 K, 101.33 kPa, x2 = 0.1162	5.336
323.15 K, 101.33 kPa, x2 = 0.1885	5.14
323.15 K, 101.33 kPa, x2 = 0.2962	4.823
323.15 K, 101.33 kPa, x2 = 0.407	4.414
323.15 K, 101.33 kPa, x2 = 0.5061	3.987
323.15 K, 101.33 kPa, x2 = 0.5975	3.433
323.15 K, 101.33 kPa, x2 = 0.6831	2.845
323.15 K, 101.33 kPa, x2 = 0.8066	1.901
323.15 K, 101.33 kPa, x2 = 0.9019	1.173

OCCCCO + O
viscosity
Details	298.15 K	303.15 K	308.15 K	313.15 K	318.15 K	323.15 K
101 kPa, x1 = 0.0099	–	0.933 mPa·s	0.836 mPa·s	0.755 mPa·s	0.687 mPa·s	0.63 mPa·s
101 kPa, x1 = 0.0201	–	1.09 mPa·s	0.971 mPa·s	0.871 mPa·s	0.788 mPa·s	0.718 mPa·s
101 kPa, x1 = 0.0299	–	1.256 mPa·s	–	0.989 mPa·s	0.89 mPa·s	0.806 mPa·s
101 kPa, x1 = 0.0399	–	1.429 mPa·s	1.256 mPa·s	1.113 mPa·s	0.998 mPa·s	0.899 mPa·s
101 kPa, x1 = 0.05	1.94 mPa·s	1.625 mPa·s	1.48 mPa·s and 1.424 mPa·s	1.258 mPa·s	1.14 mPa·s and 1.12 mPa·s	1.004 mPa·s
101 kPa, x1 = 0.0599	–	1.838 mPa·s	1.595 mPa·s	1.4 mPa·s	1.243 mPa·s	1.11 mPa·s
101 kPa, x1 = 0.0699	–	2.057 mPa·s	1.781 mPa·s	1.559 mPa·s	1.376 mPa·s	–
101 kPa, x1 = 0.075	2.65 mPa·s	–	1.93 mPa·s	–	1.44 mPa·s	–
101 kPa, x1 = 0.08	–	2.298 mPa·s	1.982 mPa·s	1.724 mPa·s	1.518 mPa·s	1.347 mPa·s
101 kPa, x1 = 0.0901	–	2.553 mPa·s	2.192 mPa·s	1.901 mPa·s	1.666 mPa·s	1.472 mPa·s
101 kPa, x1 = 0.1	3.397 mPa·s	2.818 mPa·s and 2.803 mPa·s	2.44 mPa·s and 2.404 mPa·s and 2.514 mPa·s	2.079 mPa·s	1.84 mPa·s and 1.817 mPa·s	1.602 mPa·s
101 kPa, x1 = 0.15	5.39 mPa·s	–	3.78 mPa·s	–	2.68 mPa·s	–
101 kPa, x1 = 0.2	7.88 mPa·s	–	5.24 mPa·s	–	3.72 mPa·s	–
101 kPa, x1 = 0.2001	9.496 mPa·s	7.867 mPa·s	–	–	–	–
101 kPa, x1 = 0.3007	13.82 mPa·s	11.16 mPa·s	9.319 mPa·s	–	–	–
101 kPa, x1 = 0.4	21.4 mPa·s	–	–	–	9.25 mPa·s	–
101 kPa, x1 = 0.4006	21 mPa·s	16.91 mPa·s	13.99 mPa·s	–	–	–
101 kPa, x1 = 0.4977	29.42 mPa·s	23.41 mPa·s	19.16 mPa·s	–	–	–
101 kPa, x1 = 0.6	41.4 mPa·s	–	25 mPa·s	–	16.2 mPa·s	–
101 kPa, x1 = 0.6002	38.85 mPa·s	30.89 mPa·s	25.12 mPa·s	–	–	–
101 kPa, x1 = 0.6982	47.66 mPa·s	38.2 mPa·s	30.3 mPa·s	–	–	–
101 kPa, x1 = 0.7993	56.65 mPa·s	44.81 mPa·s	36.18 mPa·s	–	–	–
101 kPa, x1 = 0.8	60.5 mPa·s	–	36.9 mPa·s	–	23.8 mPa·s	–
101 kPa, x1 = 0.8969	63.9 mPa·s	48.65 mPa·s	–	–	–	–
101 kPa, x1 = 0.9	68.4 mPa·s	–	40.3 mPa·s	–	27.1 mPa·s	–
101.3 kPa, x1 = 0.7917	–	–	–	29.65 mPa·s	–	–
101.3 kPa, x2 = 0.4531	33.95 mPa·s	–	–	–	–	–
101.3 kPa, x2 = 0.6513	18.65 mPa·s	–	–	–	–	–
